# Results: patent publication US20090258836A1, “EFFECTIVE DELIVERY OF CROSS-SPECIES A3 ADENOSINE-RECEPTOR ANTAGONISTS TO REDUCE INTRAOCULAR PRESSURE” (The Trustees of The University of Pennsylvania, priority 2006, published 2009)
# “Also recorded” adds a separate entry of the source.
# Assays:
# [1] = test system: HCE (human ciliary epithelial) cell line, NPE cells; assay: Cell volume in isosmotic solution (isosmotic shrinkage), Coulter Counter; type: cell-based
# Method: Cell Culture The HCE (human ciliary epithelial) cell line (Carre et al., supra, 1997) is an immortalized NPE cell line obtained from primary cultures of adult human epithelium. […] Eye Res. 57:3057-3063 (1993); Yantorno et al., Exp. Eye Res. 49:423-437 (1989)). […] Cells were passaged every 6-7 days and were studied 8-13 days after passage, after reaching confluence. An immortalized PE-cell line from a primary culture of bovine pigmented ciliary epithelium were also grown under matching conditions. Measurement of Cell Volume in Isosmotic Solution: The volume of PE and NPE cells was measured, since the movement of fluid underlies a change in PE and NPE cell volume, respectively. This is also thought to be the same as the movement of fluid which underlines the secretion of aqueous humor (FIG. 1). […] Parallel aliquots of cells were studied on the same day. One aliquot usually served as a control, and the others were exposed to different experimental conditions at the time of suspension. The same amount of solvent vehicle (dimethylformamide, DMSO or ethanol) was always added to the control and experimental aliquots. […] Cell volumes of isosmotic suspensions were measured with a Coulter Counter (model ZBI-Channelyzer II), using a 100 μm aperture (Civan et al., supra, 1994). As previously described (Wax et al., supra, 1993), the cell volume (vC) of the suspension was taken as the peak of the distribution function. Cell shrinkage was fit as a function of time (t) to a monoexpenential function: […]^0^)/τ] {1) where v∞ is the steady-state cell volume, v0 is the cell volume at the first point (t0) of the time course to be fit, and τ is the time constant of the shrinkage. For purposes of data reduction, the data were normalized to the first time point, taken to be 100% isotonic volume. Fits were obtained by nonlinear least-squares regression analysis, permitting both v∞ and τ to be variables. […] Med. Chem. 37:636-646 (1994; Jacobson et al., supra, 1995; Jacobson et al., FEBS Lett. 336:57-60 (1993)).
# [2] = test system: intact rabbit ciliary epithelium; assay: Short-circuit current across intact rabbit ciliary epithelium (iris-ciliary body); details: 30 μM IB-MECA, 5 mM Ba2+, solvent-corrected
# Method: As an initial step in data analysis, 20-min period of baseline current just before addition of any agent was fit by linear least-squares analysis. The line generated by that analysis was extrapolated to a point 45 min beyond introduction of that agent. Each current response was subtracted from its respective extrapolated baseline to yield a common initial baseline approximating constant zero current. All recordings were placed in register relative to time of agent introduction (time 0). Records of control (solvent), IB-MECA with solvent, and B-MECA corrected for solvent were separately averaged. […]
# Transepithelial Measurements: In animal experiments, preferably rabbits, after anesthetization and sacrifice (Carre et al., J. Membr. Biol. 146:293-305 (1995), the iris-ciliary body (1-CB) was enucleated and isolated as described by Carre et al., 1995. In one experiment, the pupil and central iris were occluded with a Lucite disc, and the iris-ciliary body was mounted between the two halves of a Lucite chamber. The annulus of exposed tissue provided a projected surface area of 0.93 cm^2. Preparations were continuously bubbled with 95%O2-5% CO2 for maintenance of pH 7.4 in a Ringer's solution comprising (in mM): 110.0 NaCl, 10.0 HEPES (acid), 5.0 HEPES (Na^+), 30.0 NaHCO3, 2.5 CaCl2, 1.2 MgCl2, 5.9 KCl, and 10.0 glucose, at an osmolality of 305 mOsm. […]
# mouse IOP = assay: Mouse IOP monitored with SNMS, protocols of Yang et al. 2005; type: in vivo
# Method: Pharmacol. 65:1675-1684 (2003)), is effective both in blocking adenosine-triggered shrinkage of cultured human NPE cells and in lowering IOP of mice (Yang et al., supra, 2005). MRS-1292 was tested on the mouse for two reasons. Transgenic mice provide a convenient opportunity for studying the molecular physiology and pharmacology in the living animal ([…] al., supra, 2003). Second, measurement of IOP permitted us to assess the effects of MRS-1292 on the target parameter. […] Therefore, to directly assess the effect of MRS-1292 in vivo in the mouse, IOP was monitored before and after drug application. IOP was monitored with the Servo-Null-Micropipette System (SNMS). The test protocols are described in detail by Yang et al. supra, 2005, herein incorporated by reference. […] In comparison, addition of the same volume of saline at the same osmolality produced no significant change in IOP (-0.3±1.2 mmHg, n=6, p>0.8) 14 min later. […] To estimate an approximate range, “penetrance” was defined by Yang et al. as the ratio of the published Ki value at receptors in vitro to the minimally effective droplet concentration, for a number of adenosine agonists and antagonists. Thus, penetrance ranges from 1:100 to 1:1000 for purinergic drugs that have been tested in the mouse, and it is not very different from the drug penetrance of 1:100 for agents applied topically to rabbits and primates. This rule of thumb also applies to acylguanidine blockers and bumetanide, whose topical effects have also been studied in the mouse eye. Thus, the approximately 1:1000 penetrance that Yang et al. reported in the 2003 citation for MRS 1292 in the present experiments is consistent with past studies
smiles,measurement,setting,value
"CNC(=O)[C@H]1O[C@@H](n2cnc3c(NCc4cccc(I)c4)ncnc32)[C@H](O)[C@@H]1O [IB-MECA, N^6-(3-iodobenzyl)-adenosine-5′-N-methyluronamide]",τ time constant of the shrinkage,[1]; 100 nM,4.5 ± 0.6 min
same,v∞ steady-state cell volume,"[1]; 100 nM, normalized to first time point as 100% isotonic volume",95.6±0.2%
same,effect of agonist on isosmotic volume of NPE cells,[1]; agonist 100 nM,produced prompt shrinkage
same,Kd,"[1]; in the presence of gramicidin, read-out: apparent Kd for the IB-MECA-induced shrinkage",55 nM
same,effect on short-circuit current,[2],increased the short circuit current; also recorded: produced a significant increase in the short-circuit current
same,increase in IOP,mouse IOP; 140 nM,4.6±1.6 mmHg
same,increase in IOP,mouse IOP; 10-fold lower concentration than 140 nM,2.2±0.5 mm Hg
same,change in IOP,mouse IOP; droplet concentration 1400 nM,−1.2±1.9 mmHg
